Literature values in US20230183218A1, “CONDENSED SUBSTITUTED HYDROPYRROLES AS ANTAGONISTS OF THE MUSCARINIC ACETYLCHOLINE RECEPTOR M4” (Vanderbilt University, priority 2020, published 2023).
Where two headings read alike, the source gives them in different places.

Experiments:
[1] = tested on: locomotor activity; settings: M4 knockout mice, but not the other four mAChR subtypes (M1-3,5); cited from earlier work
[2] = tested on: haloperidol-induced catalepsy; settings: cited from earlier work

CN1[C@@H]2C[C@@H](OC(=O)[C@H](CO)c3ccccc3)C[C@H]1[C@@H]1O[C@@H]12 [scopolamine]
locomotor-activating effects [1]: dramatically reduced
reversal of haloperidol-induced catalepsy ([2]; M4KO mice): ineffective in reducing catalepsy
reversal of haloperidol-induced catalepsy ([2]; WT mice): completely reversed
